In one experiment the test system is MRSA (ATCC43300). Description: Antibacterial MIC, broth growth inhibition OD600. The experiment is classed as cell-based, Staphylococcus aureus. The settings on record: MIC = ≥80% growth inhibition.
For the next experiment, the system named is A. baumannii (ATCC19606). Description: Antibacterial MIC, broth growth inhibition OD600. The experiment is classed as cell-based, Acinetobacter baumannii.
The test system of the next experiment is C. albicans (ATCC90028). Description: Antifungal MIC, growth inhibition. The settings on record: Candida albicans. The format is cell-based.
Experiment [1] deals with P. aeruginosa (ATCC27853). Description: Antibacterial MIC, broth growth inhibition OD600. The experiment is classed as cell-based, Pseudomonas aeruginosa.
The subject of experiment [2] is C. neoformans (ATCC 208821). The experiment is described as follows: Antifungal MIC, growth inhibition. The experiment is classed as cell-based. The following applies: Cryptococcus neoformans, ATCC208821, read-out: MIC Cn.
The test system of a further experiment is E. coli (ATCC25922). The experiment is described as follows: Antibacterial MIC, broth growth inhibition OD600. The experiment is classed as cell-based, Escherichia coli. The following applies: for MIC: Escherichia coli, ATCC25922, read-out: MIC Ec.
Experiment [3] has as its system E. coli, K. pneumoniae, P. aeruginosa, A. baumannii, MRSA, C. albicans, C. neoformans. The experiment is described as follows: Antibacterial and antifungal MIC panel. The format is cell-based.
The mark [4] stands for this setting: ATCC90028, read-out: MIC Ca, MIC = ≥80% growth inhibition.

In brackets after ≈: the same amount, converted by molar mass. Read-outs that look alike come from different tables or passages of the source.

For orientation: MIC means the smallest concentration in the dilution series that meets the test's criterion for growth inhibition. For the compound `COc1cc2c(=O)c(C(=O)NCCNCCO)cn(Cc3ccccc3)c2cc1OCc1cccc(F)c1` [Compound 42, 1-Benzyl-7-[(3-fluorobenzyl)oxy]-N-{2-[(2-hydroxyethyl)amino]ethyl}-6-methoxy-4-oxo-1,4-dihydroquinoline-3-carboxamide], in the experiment with MRSA (ATCC43300), the “MIC MRSa” value is more than 32 µg/mL. For the same compound, the MIC in the experiment on A. baumannii (ATCC19606) (Acinetobacter baumannii, ATCC19606, read-out: MIC Ab) was less than 0.25 µg/mL; with C. albicans (ATCC90028) (ATCC90028, read-out: MIC Ca), more than 32 µg/mL; in experiment [1] (Pseudomonas aeruginosa, ATCC27853, read-out: MIC Pa), less than 0.25 µg/mL; in experiment [2], less than 0.25 µg/mL; in the experiment on E. coli (ATCC25922), less than 0.25 µg/mL.
As for colistin [reference compound], in experiment [3], the “MIC against Gram-negative bacteria (summary)” value is 0.1 to 0.25 µg/mL. For the same compound, in the experiment on A. baumannii (ATCC19606) (MIC = ≥80% growth inhibition), the “MIC Ab” value came to 0.25 µg/mL. For the same compound, in experiment [1] (MIC = ≥80% growth inhibition), the “MIC Pa” value amounted to 0.25 µg/mL. For the same compound, in the experiment with E. coli (ATCC25922) (MIC = ≥80% growth inhibition), the “MIC Ec” value is 0.12 µg/mL.
Turning to `OC(Cn1cncn1)(Cn1cncn1)c1ccc(F)cc1F` [fluconazole, reference compound], in the experiment with C. albicans (ATCC90028) (setting [4]), the MIC was found to be 0.125 µg/mL (≈ 0.408 µM).
As for `CCn1cc(C(=O)NCCNCCO)c(=O)c2cc(OC)c(OCc3cc(F)cc(F)c3)cc21` [Compound 43, 7-[(3,5-Difluorobenzyl)oxy]-1-ethyl-N-{2-[(2-hydroxyethyl)amino]ethyl}-6-methoxy-4-oxo-1,4-dihydroquinoline-3-carboxamide], the “MIC MRSa” value against MRSA (ATCC43300) was more than 32 µg/mL. The MIC with C. albicans (ATCC90028) (setting [4]) was more than 32 µg/mL; in the experiment on E. coli (ATCC25922), less than 0.25 µg/mL.

Values taken from publication PMC10193574 (ACS Omega, 2023).
